{"source": "patent US20070292351A1", "about": "“Assay for efficacy of histone deacetylase inhibitors” (Methylgene, Inc., priority 2006, published 2007)", "key": {"human colon HCT15 cells": {"system": "human colon HCT15 cells", "test": "Microarray gene expression analysis, HCT15 cells in vitro", "format": "cell-based", "settings": "HCT-15, HCT15 in vitro", "procedure": "(§1) Human cancer cell lines were from American Type Culture Collection (Manassas, Va.) and were all cultured following the vendor's instructions.\n(§2) Biological analysis was performed using Biointerpreter software."}, "[1]": {"system": "human leukemic MV-4-11 cells", "test": "Microarray gene expression analysis, MV-4-11 cells in vitro", "format": "cell-based", "settings": "MV-4-11 in vitro, 1 uM, c2-c5 = sample 1, 2, 3, sample 3 dye swap", "procedure": "as §1, §2"}, "[2]": {"system": "H4 acetylation in human H460 tumors", "test": "H4Ac immunoblot analysis of H460 tumors in nude mice", "format": "in vivo, nude mice (Balb/c)", "settings": "100 mg/kg oral, immunoblot normalized to total histones (FIG. 5B)", "procedure": "FIG. 5 Induction of MT3 and p21 in implanted human NSCLC H460 tumors in vivo in nude mice. Nude mice (Balb/c) bearing human H460 tumors were treated with 100 mg/kg MGCD0103 or 0.5% HEC (Vehicle) by oral administration. After 6 h or 24 h, three mice from each group were sacrificed, their tumors harvested and analyzed. Panel A: p21 and MT3 RNA levels quantified by conventional semi-quantitative PCR, normalized to β-actin. Panel B: H4Ac level detected by immunoblot analysis, normalized to total histones.\nHuman non-small cell lung carcinoma NSCLC-H460 cells (2 million) were injected subcutaneously in the animal flank and allowed to form solid tumors. Tumor fragments were passaged in animals for a minimum of three times before their use. Tumor fragments (about 30 mg) were implanted subcutaneously through a small surgical incision under general anesthesia to Balb/cA female nude mice (6-8 weeks old). Recipient animals were treated with either vehicle (0.1 N HCl) or MGCD0103 (2HBr salt, in 0.1 N HCl) 100 mg/kg orally. Tumors were harvested after one dose of either 6 hour or 24 hours post administration of vehicle or MGCD0103. Each experimental group contained 3 animals. Tumor tissues were deposited in RNAlater (Qiagen, Missisauga Ontario) for total RNA extraction."}, "IL-6 and IL-8": {"system": "IL-6 and IL-8", "test": "Cytokine antibody array of patient plasma", "format": "in vivo, human", "settings": "two leukemia patients treated orally; cytokine antibody array (FIG. 16)", "procedure": "FIG. 16 Induction of IL-6 and IL-8 expression in plasma from two leukemia patients treated with MGCD0103 orally in vivo, as determined by cytokine antibody array.\n(§3) Human patients with either solid tumors or leukemia/MDS diseases were enrolled in phase I studies with consensus forms. MGCD0103 were dosed into patients orally every other day (day 1, day 3, day 5 […]). Blood samples were withdrawled by using the Vacutainer sodium-heparin blood collection tubes (Becton Dickinson Laboratories, Franklin Lakes, N.J.) and shipped to the test site within 24 hours on ice-pack. Baseline samples were drawn immediately prior to the first drug dose, while the 24 hour samples were drawn at 24 hours post the first drug dose. The 48 hours samples were drawn at 48 hours post the first dose. For the 1 week samples, blood was drawn 72 hours after day 5 dose (3 accumulated doses during week 1).\n10 ml blood from patients were centrifuged at 2500 RPM for 10 min at 10° C. […] The levels of cytokines in the plasma were determined using the TranSignal Human Cytokine Antibody Array 1.0 (Cat#MA6120, Panomics Inc. Redwood City, Calif.) following the manufacturer's instructions. […] Blots were developed by autoradiography, scanned and quantitated using the Cyclone Software. Data was calculated, plotted using Excel and expressed as fold induction from Day 8 following treatment over baseline Day 0 samples."}, "IL-6": {"system": "IL-6", "test": "IL-6 protein levels in plasma by ELISA", "format": "in vivo, human", "settings": "leukemia patients, Day 8, ELISA (FIG. 17)", "procedure": "FIG. 17 Induction of plasma IL-6 from leukemia patients from treated with MGCD0103 at Day 8, analyzed by ELISA assays.\nPatient plasma samples at […] were analyzed by ELISA\nas §3\nBlood from patients was centrifuged at 2500 RPM for 10 min at 10° C. Plasma was separated and frozen until used. Plasma was thawed, and spun again at 2500 RPM for 10 min at 10° C. The level of IL-6 was determined by ELISA (eBioscience, San Diego, Calif.), following the manufacturer's instructions. IL-6 concentration (pg/ml) in the samples was calculated from a standard curve generated by using standard IL-6 also provided in the kit. […] All the data was calculated and plotted using Excel."}}, "note": "“And” between values parts separate entries of the source, which are not always exact repeats. Equal values may be shown once. Read-outs that look alike come from different tables or passages of the source."}
{"molecule": "Nc1ccccc1NC(=O)c1ccc(CNc2nccc(-c3cccnc3)n2)cc1", "note": "[MGCD0103]", "values": [{"measurement": "fold induction at 1 µM", "setting": "human colon HCT15 cells; probe A_23_P16523, read-out: Fold Induction of GDF15 transcription", "value": 4.18}, {"measurement": "fold induction at 1 µM", "setting": "human colon HCT15 cells; probe A_23_P41344, read-out: Fold Induction of EREG transcription", "value": 4.62}, {"measurement": "fold induction at 1 µM", "setting": "human colon HCT15 cells; probe A_23_P52336, read-out: Fold Induction of UNC5B transcription", "value": 5.7}, {"measurement": "fold induction at 1 µM", "setting": "human colon HCT15 cells; probe A_23_P94754, read-out: Fold Induction of TNFSF15 transcription", "value": 4.11}, {"measurement": "fold induction at 1 µM", "setting": "human colon HCT15 cells; probe A_23_P114947, read-out: Fold Induction of RGS2 transcription", "value": 2.75}, {"measurement": "fold induction at 1 µM", "setting": "human colon HCT15 cells; probe A_23_P142506, read-out: Fold Induction of GADD45B transcription", "value": 3.1}, {"measurement": "fold induction at 1 µM", "setting": "human colon HCT15 cells; probe A_23_P149019, read-out: Fold Induction of BAI2 transcription", "value": 5.13}, {"measurement": "fold induction at 1 µM", "setting": "human colon HCT15 cells; probe A_23_P151046, read-out: Fold Induction of KLRC1 transcription", "value": 9.29}, {"measurement": "fold induction at 1 µM", "setting": "human colon HCT15 cells; probe A_23_P259071, read-out: Fold Induction of AREG transcription", "value": 9.39}, {"measurement": "fold induction at 1 µM", "setting": "human colon HCT15 cells; probe A_23_P315273, read-out: Fold Induction of MT3 transcription", "value": 7.65}, {"measurement": "fold induction at 1 µM", "setting": "human colon HCT15 cells; probe A_24_P5856, read-out: Fold Induction of TNFSF9 transcription", "value": 2.96}, {"measurement": "fold induction at 1 µM", "setting": "human colon HCT15 cells; probe A_24_P217520, read-out: Fold Induction of EREG transcription", "value": 4.14}, {"measurement": "Ratio vs control, ADORA1", "setting": "[1]", "value": "3.6 and 5.4 and 5.1"}, {"measurement": "Ratio vs control, AHR", "setting": "[1]", "value": "11.3 and 10.5 and 13.1 and 10.2"}, {"measurement": "Ratio vs control, APOE", "setting": "[1]", "value": "5.9 and 6.3 and 6.0 and 6.1"}, {"measurement": "Ratio vs control, AXUD1", "setting": "[1]", "value": "2.5 and 3.9 and 3.1"}, {"measurement": "Ratio vs control, BMF", "setting": "[1]", "value": "6.0 and 7.4 and 6.7 and 7.1"}, {"measurement": "Ratio vs control, CARD10", "setting": "[1]", "value": "2.7 and 4.4 and 3.0 and 3.9"}, {"measurement": "Ratio vs control, CASP5", "setting": "[1]", "value": "2.7 and 2.5 and 3.0 and 2.6"}, {"measurement": "Ratio vs control, CASP7", "setting": "[1]", "value": "5.0 and 7.2 and 5.2 and 5.8"}, {"measurement": "Ratio vs control, CAST", "setting": "[1]", "value": "2.7 and 3.0 and 2.5 and 3.2"}, {"measurement": "Ratio vs control, CD40", "setting": "[1]", "value": "8.0 and 7.2 and 7.0 and 8.7"}, {"measurement": "Ratio vs control, CDKN1A", "setting": "[1]", "value": "4.4 and 4.0 and 4.6 and 3.9"}, {"measurement": "Ratio vs control, CLU", "setting": "[1]", "value": "20.2 and 13.8 and 14.7 and 14.4"}, {"measurement": "Ratio vs control, DNASE2", "setting": "[1]", "value": "10.5 and 11.4 and 12.1 and 12.9"}, {"measurement": "Ratio vs control, EIF2AK2", "setting": "[1]", "value": "17.9 and 21.1 and 18.1 and 26.7"}, {"measurement": "Ratio vs control, GPR65", "setting": "[1]", "value": "7.8 and 6.5 and 7.9 and 6.6"}, {"measurement": "Ratio vs control, HIPK2", "setting": "[1]", "value": "4.1 and 6.6 and 4.6 and 4.2"}, {"measurement": "Ratio vs control, IL1B", "setting": "[1]", "value": "9.6 and 11.2 and 8.5 and 11.4"}, {"measurement": "Ratio vs control, IL3RA", "setting": "[1]", "value": "4.4 and 4.3 and 5.1 and 3.3"}, {"measurement": "Ratio vs control, IL18", "setting": "[1]", "value": "4.5 and 7.9 and 6.5 and 5.5"}, {"measurement": "Ratio vs control, LY86", "setting": "[1]", "value": "4.5 and 3.6 and 3.8 and 4.3"}, {"measurement": "Ratio vs control, MAP3K14", "setting": "[1]", "value": "2.6 and 2.8"}, {"measurement": "Ratio vs control, MX1", "setting": "[1]", "value": "35.8 and 27.5 and 38.0 and 23.2"}, {"measurement": "Ratio vs control, NALP1", "setting": "[1]", "value": "7.3 and 7.4 and 6.4"}, {"measurement": "Ratio vs control, NGFR", "setting": "[1]", "value": "3.0 and 2.7 and 2.6 and 2.8"}, {"measurement": "Ratio vs control, PDE1B", "setting": "[1]", "value": "4.3 and 3.4 and 4.8 and 3.6"}, {"measurement": "Ratio vs control, PPP3CA", "setting": "[1]", "value": "2.7 and 3.0 and 3.3 and 2.6"}, {"measurement": "Ratio vs control, PRKAR2B", "setting": "[1]", "value": "10.8 and 7.2 and 11.1 and 7.6"}, {"measurement": "Ratio vs control, TNFRSF21", "setting": "[1]", "value": "4.1 and 6.4 and 4.7 and 5.2"}, {"measurement": "Ratio vs control, TNFRSF25", "setting": "[1]", "value": "4.2 and 4.0 and 4.4 and 3.6"}, {"measurement": "Ratio vs control, TNFSF10", "setting": "[1]", "value": "7.4 and 7.2 and 10.1 and 5.6"}, {"measurement": "Ratio vs control, TNFSF14", "setting": "[1]", "value": "5.1 and 3.7 and 3.9 and 4.6"}, {"measurement": "Ratio vs control, BNIP3L", "setting": "[1]; gene listed twice (r23, r58)", "value": "4.9 and 3.2 and 3.4 and 2.6 and 3.5 and 2.9"}, {"measurement": "Ratio vs control, CASP4", "setting": "[1]; gene listed twice (r64, r66)", "value": "2.7 and 2.8 and 2.6 and 2.9 and 3.0 and 2.5 and 3.1"}, {"measurement": "H4 acetylation in tumors", "setting": "[2]", "value": "detectable only after 6 h of treatment"}, {"measurement": "induction of IL-6 and IL-8 expression in plasma", "setting": "IL-6 and IL-8", "value": "induction"}, {"measurement": "induction of plasma IL-6", "setting": "IL-6", "value": "induction"}]}
